Test results: ChEMBL document CHEMBL1201862, “PubChem BioAssay data set” (2004)
Activity calls are given as the source filed them.

Tests used:
[1] = molecular target: T1, Luciferin 4-monooxygenase (Photinus pyralis, UniProt P08659); experiment: Counter Screen for Luciferase-based Assay Positives. [Related pubchem assays: 620, 618, 411 ]
[2] = inhibitors of SNCA 5'UTR-driven reporter translation, confirmation, H4 neuroglioma cells, luminescence (AID 1988); type: functional, cell-based
[3] = Luminescence Cell-Based Dose Response HTS to Identify Inhibitors of 5'UTR Stem-Loop Driven Prion Protein mRNA Translation in H4 Neuroglioblastoma Cells. [Related pubchem assays: 1827 (Project Summary), 1813 (Primary HTS)]; type: functional
[4] = tested on: HT-1080; experiment: cytotoxicity in HT1080 fibrosarcoma cells, cell-based, fluorescence readout (AID 620); type: functional; conditions: Homo sapiens
[5] = molecular target: T2, Mannose-6-phosphate isomerase (Homo sapiens, UniProt P34949); experiment: inhibitors of human PMI, primary screen, biochemical, fluorescence intensity, coupled assay (AID 1209)
T2 sequence (P34949 whole entry): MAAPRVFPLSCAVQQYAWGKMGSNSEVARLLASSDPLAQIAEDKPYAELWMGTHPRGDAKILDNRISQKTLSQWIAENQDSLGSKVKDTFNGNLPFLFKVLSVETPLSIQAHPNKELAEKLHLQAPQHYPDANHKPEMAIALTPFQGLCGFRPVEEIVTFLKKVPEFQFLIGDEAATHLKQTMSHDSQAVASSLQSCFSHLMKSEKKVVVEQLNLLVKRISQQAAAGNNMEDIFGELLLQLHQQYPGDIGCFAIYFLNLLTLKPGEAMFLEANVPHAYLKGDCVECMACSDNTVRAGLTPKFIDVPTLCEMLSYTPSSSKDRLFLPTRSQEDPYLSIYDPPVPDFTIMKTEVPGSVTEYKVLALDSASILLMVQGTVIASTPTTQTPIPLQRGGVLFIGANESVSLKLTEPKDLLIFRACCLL

[6] = molecular target: T3, Heat shock 70 kDa protein 1A (Homo sapiens, UniProt P0DMV8); experiment: Hsp70 inhibitors, probe displacement, primary screen, biochemical, fluorescence polarization (AID 583)
[7] = molecular target: T3, Heat shock 70 kDa protein 1A; experiment: Hsp70 inhibitors, biochemical, TR-FRET (AID 786)
[8] = molecular target: Lysosomal acid glucosylceramidase (Homo sapiens, UniProt P04062); experiment: Dose response cell-based high throughput screening assay to identify enhancers of beta-glucosidase activity. [Related pubchem assays: 784 ]; type: functional
[9] = HEp-2 cell cytotoxicity, dose response, cytotoxicity control for RSV inhibitor project, HTS (AID 2410); type: functional; conditions: human respiratory syncytial virus
[10] = inhibitors of non-replicating M. tuberculosis, dose response, luciferase, dry powder (AID 651619); type: functional; conditions: Mycobacterium tuberculosis
[11] = inhibitors of non-replicating M. tuberculosis, dose response, luciferase, dry powder (AID 651620); type: functional; conditions: Mycobacterium tuberculosis
[12] = insulin promoter down-regulators in MIN6 cells, imaging, high-content screening, mouse beta cells (AID 1628); type: functional
[13] = molecular target: Protein Rev (Human immunodeficiency virus type 1 group M subtype B (isolate WMJ22)(HIV-1), UniProt P05866); experiment: HIV-1 Rev-RRE RNA binding disruptors, dose response, biochemical, protein-RNA interaction (AID 842); design: species or system Human immunodeficiency virus 1
[14] = tested on: INS1; experiment: beta cell apoptosis inhibitors, cytokine rescue, dose response, luminescence, retest (AID 449756); type: functional, cell-based; conditions: Rattus norvegicus;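 further: cell death triggered by IL-1 beta plus TNF-alpha plus IFN-gamma mixture; protective hits raise ATP signal compared with cytokine alone wells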
[15] = molecular target: FAD-linked sulfhydryl oxidase ALR (Homo sapiens, UniProt P55789); experiment: inhibitors of human ALR sulfhydryl oxidase, dose response, biochemical, H2O2 detection, luminescence, cherry-pick (AID 493248)
[16] = cytotoxicity in MIN6 insulinoma cells, dose response, cytotoxicity control, cell-based, mouse insulinoma (AID 2122); type: functional;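 further: confirmatory high-throughput counterscreen run to flag cytotoxic compounds; mouse MIN-6 beta cells carrying an insulin promoter eGFP reporter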
[17] = molecular target: T4, Estrogen receptor beta (Homo sapiens, UniProt Q92731);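 further: recombinant ER-beta bound to coactivator SRC1 peptide in presence of estradiol agonist; inhibitors block coactivator peptide binding and lower the FRET signal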
[18] = molecular target: T4, Estrogen receptor beta; experiment: ERβ–SRC-3 coactivator interaction inhibitors, confirmation, orthogonal assay, biochemical, ELISA, streptavidin-HRP readout (AID 1060)
[19] = molecular target: T5, Estrogen receptor (Homo sapiens, UniProt P03372);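 further: potency for inhibiting coactivator peptide recruitment to the receptor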
T5 sequence (P03372 whole entry): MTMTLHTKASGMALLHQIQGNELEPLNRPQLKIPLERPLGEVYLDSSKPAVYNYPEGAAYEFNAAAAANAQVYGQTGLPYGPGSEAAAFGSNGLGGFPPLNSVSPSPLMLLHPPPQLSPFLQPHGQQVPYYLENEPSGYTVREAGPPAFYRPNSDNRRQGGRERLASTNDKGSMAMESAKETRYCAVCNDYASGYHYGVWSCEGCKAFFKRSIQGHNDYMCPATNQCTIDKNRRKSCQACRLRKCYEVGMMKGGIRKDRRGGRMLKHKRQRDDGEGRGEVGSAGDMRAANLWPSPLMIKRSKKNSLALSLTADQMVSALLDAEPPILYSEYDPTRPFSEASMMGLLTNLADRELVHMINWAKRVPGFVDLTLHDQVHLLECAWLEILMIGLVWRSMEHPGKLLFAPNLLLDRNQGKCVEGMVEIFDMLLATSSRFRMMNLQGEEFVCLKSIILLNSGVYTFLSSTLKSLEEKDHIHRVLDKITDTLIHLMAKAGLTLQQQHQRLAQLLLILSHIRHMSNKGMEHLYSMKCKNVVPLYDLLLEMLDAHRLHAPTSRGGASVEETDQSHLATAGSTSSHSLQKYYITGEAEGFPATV

[20] = cells
[21] = tested on: Vero; experiment: cells; type: functional, cell-based; conditions: Chlorocebus sabaeus
[22] = THP-1 cell cytotoxicity, dose response, cytotoxicity control for Vif-APOBEC3G degradation inhibitor project, THP-1 cells (AID 1117359); type: functional; conditions: Human immunodeficiency virus 1, THP-1
[23] = Luminescence Cell-Based Dose Confirmation HTS to Identify Inhibitors of Platelet Dense Granule Release. [Related pubchem assays: 1663 (Primary HTS), 1678 (Summary of Project)]; type: functional
[24] = inhibitors of firefly luciferase expression or activity, dose response, H4 neuroglioma cells, luminescence (AID 1990); type: functional, cell-based
[25] = inhibitors of SNCA 5'UTR-driven translation, confirmation, luminescence, H4 neuroglioblastoma cells, dose confirmation (AID 2454); type: functional, cell-based;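 further: H4 neuroglioblastoma cells carrying an alpha-synuclein 5'UTR luciferase reporter; potency for inhibition of the luciferase signal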
[26] = luciferase reporter signal reduction – luminescence, H4-C neuroglioblastoma cells, dose response (AID 2458); type: functional, cell-based;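 further: H4 neuroglioblastoma cells stably carrying a luciferase reporter gene fusion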
[27] = cells; type: functional, cell-based
[28] = molecular target: T1, Luciferin 4-monooxygenase; experiment: firefly luciferase enzyme inhibitors, dose response, biochemical, luminescence (AID 1891)
[29] = growth suppression of PTEN-null colon cells, dose response, cell-based, HCT116 PTEN knockout (AID 1047); type: functional;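 further: HCT116 colon tumor cells with PTEN knocked out; cells exposed to compound for 60 hours before readout; potency for loss of cell viability measured by luminescence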
[30] = A Cell Based Secondary Assay To Explore Cytotoxicity of Compounds that Sensitize Mycobacterium Tuberculosis to Beta-Lactam Antibiotics.; type: functional
[31] = growth suppression of beta-catenin-knockout colon cells, dose response, cell-based, HCT116, human colon tumor (AID 1045); type: functional;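 further: HCT116 colon tumor cells with beta catenin knocked out; cells exposed to compound for 60 hours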
[32] = tested on: H9c2; experiment: cells; type: functional, cell-based; conditions: Rattus norvegicus, H9c2, Myocardium;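 further: confirmatory concentration-response retest of ultra-high-throughput screening hits for modulation of myocardial damage; cell death induced by hydrogen peroxide oxidative stress; compound pretreatment for 60 min then peroxide exposure for 2 h; potency is for protecting the cells against peroxide damage rather than for killing them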
[33] = LGR2 antagonists, dose response, cell-based, HEK293, CRE-luciferase reporter, cherry pick, set 2 (AID 743343); type: functional;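 further: transfected cells were stimulated with diluted bursicon conditioned medium after compound addition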
[34] = HEK293 cell cytotoxicity, dose response, cytotoxicity control, plate reader, cherry-picked samples (AID 743446); type: functional, cell-based
[35] = tested on: HEK293; experiment: cells; conditions: Homo sapiens
[36] = tested on: HEK293; experiment: cells; conditions: Homo sapiens; remark: listed apart in the source
[37] = HepG2 cell cytotoxicity, dose response, cytotoxicity control, plate reader, cherry-pick, antagonist series (AID 743416); type: functional, cell-based
[38] = MC4R antagonists, dose response, counter-screen for LGR2 antagonist project, cell-based, plate reader, cherry pick (AID 743444); type: functional;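 further: transfected HEK 293 cells stimulated with alpha-MSH peptide; potency of inhibitors of the alpha-MSH evoked signal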
[39] = inhibitors of PGC1a acetylation in cells, dose response, cell-based, cherry-picked samples (AID 720514); type: functional;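 further: potency may reflect raised or lowered acetylation signal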
[40] = microbe, parasite or virus in culture; type: functional; conditions: Mycobacterium tuberculosis
[41] = molecular target: Heat shock protein HSP 90-alpha (Homo sapiens, UniProt P07900); experiment: Luminescence-based dose response biochemical high throughput screening assay for inhibitors of the Heat Shock Protein 90 (HSP90). [Related pubchem assays: 1831 (Summary AID.), 1846 (Confirmation screen.), 1789 (Primary screen.)]
[42] = inhibitors of intracellular T. cruzi replication, confirmation, NIH3T3 host cells, beta-gal luminescence (AID 2044); type: functional, cell-based;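 further: intracellular parasites grown in NIH/3T3 mouse fibroblasts as host cells; luminescent beta-galactosidase reporter signal from transgenic T. cruzi replicating inside host cells; inhibitors lower the luminescence signal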
[43] = cytotoxicity toward NIH3T3 fibroblasts, dose response, counter-screen, cell-based, ATP luminescence, mouse fibroblasts (AID 2010); type: functional;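 further: cells exposed to compound for about 90 hours before reading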
[44] = tested on: A-375; experiment: MITF: Counter assay: A375 proliferation Measured in Cell-Based System Using Plate Reader - 2084-03_Inhibitor_Dose_DryPowder_Activity. [Related pubchem assays (depositor defined):AID488944]; type: functional; conditions: Homo sapiens
[45] = molecular target: T6, Leucine aminopeptidase (Plasmodium falciparum 3D7, UniProt Q8IL11); experiment: P. falciparum M17LAP inhibitors, primary screen, biochemical, fluorogenic H-Leu-NHMec substrate, 1536-well (AID 1619); type: functional
T6 sequence (Q8IL11 whole entry): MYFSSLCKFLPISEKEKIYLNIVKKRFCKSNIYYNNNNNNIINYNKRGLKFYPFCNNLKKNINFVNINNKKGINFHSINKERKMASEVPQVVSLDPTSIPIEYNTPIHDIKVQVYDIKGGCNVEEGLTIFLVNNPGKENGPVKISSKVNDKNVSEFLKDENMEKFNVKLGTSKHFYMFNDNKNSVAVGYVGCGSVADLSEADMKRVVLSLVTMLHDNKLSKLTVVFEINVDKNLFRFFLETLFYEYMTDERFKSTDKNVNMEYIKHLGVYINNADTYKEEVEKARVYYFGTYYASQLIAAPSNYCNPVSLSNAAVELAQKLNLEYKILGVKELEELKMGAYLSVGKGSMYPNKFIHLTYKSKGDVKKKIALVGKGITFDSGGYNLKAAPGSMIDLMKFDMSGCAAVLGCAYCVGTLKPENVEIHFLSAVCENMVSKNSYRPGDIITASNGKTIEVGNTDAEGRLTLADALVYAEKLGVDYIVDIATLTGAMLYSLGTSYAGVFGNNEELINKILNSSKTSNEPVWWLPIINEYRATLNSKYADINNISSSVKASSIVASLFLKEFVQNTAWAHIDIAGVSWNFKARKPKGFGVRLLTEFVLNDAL

T4 sequence (Q92731 whole entry): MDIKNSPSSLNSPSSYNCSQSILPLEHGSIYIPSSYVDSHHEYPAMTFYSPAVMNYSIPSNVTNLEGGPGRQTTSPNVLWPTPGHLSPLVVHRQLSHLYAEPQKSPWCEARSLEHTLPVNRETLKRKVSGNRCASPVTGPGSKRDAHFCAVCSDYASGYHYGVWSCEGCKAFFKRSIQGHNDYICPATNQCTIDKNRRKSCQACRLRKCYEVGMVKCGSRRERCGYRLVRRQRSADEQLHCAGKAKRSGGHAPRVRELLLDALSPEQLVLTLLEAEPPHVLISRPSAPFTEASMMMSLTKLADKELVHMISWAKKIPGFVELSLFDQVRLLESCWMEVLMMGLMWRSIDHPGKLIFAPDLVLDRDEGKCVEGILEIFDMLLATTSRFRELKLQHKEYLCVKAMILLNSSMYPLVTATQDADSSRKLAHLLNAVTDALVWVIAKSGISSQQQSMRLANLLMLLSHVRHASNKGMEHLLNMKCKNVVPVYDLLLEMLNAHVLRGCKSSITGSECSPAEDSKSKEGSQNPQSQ
T3 sequence (P0DMV8 whole entry): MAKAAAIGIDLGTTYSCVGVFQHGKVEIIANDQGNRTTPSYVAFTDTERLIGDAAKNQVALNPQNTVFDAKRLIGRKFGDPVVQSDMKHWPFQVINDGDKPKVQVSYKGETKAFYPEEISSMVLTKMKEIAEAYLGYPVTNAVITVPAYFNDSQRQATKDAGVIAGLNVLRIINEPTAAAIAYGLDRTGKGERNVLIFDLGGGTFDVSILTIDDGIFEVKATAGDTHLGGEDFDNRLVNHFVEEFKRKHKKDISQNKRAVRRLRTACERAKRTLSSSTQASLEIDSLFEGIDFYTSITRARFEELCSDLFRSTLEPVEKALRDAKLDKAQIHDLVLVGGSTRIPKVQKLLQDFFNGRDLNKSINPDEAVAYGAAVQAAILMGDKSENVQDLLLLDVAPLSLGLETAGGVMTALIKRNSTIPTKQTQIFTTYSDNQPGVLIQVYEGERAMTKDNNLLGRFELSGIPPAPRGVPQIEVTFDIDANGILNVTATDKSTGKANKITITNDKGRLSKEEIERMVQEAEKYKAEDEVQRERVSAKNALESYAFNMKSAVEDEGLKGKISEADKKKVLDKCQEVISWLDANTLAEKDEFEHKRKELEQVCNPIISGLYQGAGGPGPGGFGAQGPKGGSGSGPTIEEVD
T1 sequence (P08659 whole entry): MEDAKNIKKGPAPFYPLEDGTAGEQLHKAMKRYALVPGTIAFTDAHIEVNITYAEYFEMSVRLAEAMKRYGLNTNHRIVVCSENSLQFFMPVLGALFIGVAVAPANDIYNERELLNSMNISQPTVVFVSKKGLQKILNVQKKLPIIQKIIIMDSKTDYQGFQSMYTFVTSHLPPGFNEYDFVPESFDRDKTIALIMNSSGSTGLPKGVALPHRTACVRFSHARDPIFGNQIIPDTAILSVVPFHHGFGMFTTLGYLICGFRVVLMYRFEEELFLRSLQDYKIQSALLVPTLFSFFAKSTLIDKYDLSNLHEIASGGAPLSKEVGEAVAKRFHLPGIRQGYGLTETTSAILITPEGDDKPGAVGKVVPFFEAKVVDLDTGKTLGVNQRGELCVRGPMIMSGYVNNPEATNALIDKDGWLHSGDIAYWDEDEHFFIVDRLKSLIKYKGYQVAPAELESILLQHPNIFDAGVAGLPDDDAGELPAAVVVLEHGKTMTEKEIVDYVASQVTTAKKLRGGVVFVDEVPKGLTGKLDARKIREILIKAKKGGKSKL
Lysosomal acid glucosylceramidase, sequence (P04062 whole entry): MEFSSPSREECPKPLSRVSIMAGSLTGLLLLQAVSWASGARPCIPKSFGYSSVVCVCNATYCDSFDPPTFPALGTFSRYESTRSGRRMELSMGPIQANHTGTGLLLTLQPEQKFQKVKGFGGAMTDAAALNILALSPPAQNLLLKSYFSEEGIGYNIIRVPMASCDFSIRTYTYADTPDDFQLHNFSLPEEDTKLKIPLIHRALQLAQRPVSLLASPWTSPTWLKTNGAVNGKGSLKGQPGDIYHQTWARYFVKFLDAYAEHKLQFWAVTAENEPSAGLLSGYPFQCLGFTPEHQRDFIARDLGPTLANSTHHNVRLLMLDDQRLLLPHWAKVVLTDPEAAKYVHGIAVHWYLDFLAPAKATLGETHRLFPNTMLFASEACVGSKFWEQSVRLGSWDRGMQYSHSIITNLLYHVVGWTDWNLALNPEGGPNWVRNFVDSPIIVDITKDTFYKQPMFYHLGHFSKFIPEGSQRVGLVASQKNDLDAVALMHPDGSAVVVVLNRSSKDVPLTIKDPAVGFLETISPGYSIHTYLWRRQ
FAD-linked sulfhydryl oxidase ALR, sequence (P55789 whole entry): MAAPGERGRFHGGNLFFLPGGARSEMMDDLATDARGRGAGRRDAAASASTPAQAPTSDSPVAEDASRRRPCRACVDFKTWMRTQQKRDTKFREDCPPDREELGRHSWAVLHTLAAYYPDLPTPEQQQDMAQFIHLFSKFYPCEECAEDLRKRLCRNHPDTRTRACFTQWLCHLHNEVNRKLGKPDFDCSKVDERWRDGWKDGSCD
Protein Rev, sequence (P05866 whole entry): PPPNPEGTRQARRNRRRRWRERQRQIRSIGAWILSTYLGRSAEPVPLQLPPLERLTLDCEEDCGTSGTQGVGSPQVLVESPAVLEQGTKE

Cc1csc(NC(=O)C2COc3ccccc3O2)n1 (centres undefined)
EC50 [1]: 0.56 µM (active)
EC50 [2]: 7.32 µM (active)
EC50 [3]: 10.7 µM (inconclusive)
EC50 [4]: > 50 µM (not active)

COc1ccccc1N1C(=O)CC(Sc2n[nH]c(-c3cccc(C)c3)n2)C1=O (centres undefined)
IC50 [5]: 48.1 µM (active)

CCOC(=O)CNC(=O)CNC(=O)Cn1ccc2ccccc2c1=O
IC50 [6]: > 100 µM (not active)
IC50 [7]: > 100 µM (not active)

O=c1cccc2n1CC1CC2CN(Cc2cccc(Cl)c2Cl)C1 (centres undefined)
EC50 [8]: > 50 µM (not active)
CC50 [9]: 23.1 µM (active)

Fc1ccc(CSc2nnc(-c3cccnc3)o2)cc1
IC90 [10]: 1 µM (active)
IC90 [11]: 1 µM (active)

C[n+]1c2n(c3ccccc31)N=C(c1ccc(Cl)cc1)CS2
IC50 [12]: 2.51 µM (active)
IC50 [13]: > 79.4 µM (not active)
AC50 [14]: 4.54 µM (active)
AC50 [15]: 0.425 µM (active)
IC50 [16]: 1.49 µM (active)

CC12CCCCC1(O)[N+](=O)C1=C(CCCC1)N2[O-] (centres undefined)
IC50 [17]: 10.9 µM (active)
IC50 [18]: 2.85 µM (not active)

CCn1nccc1C(=O)Nc1ccc(Cl)cn1
IC50 [6]: > 100 µM (not active)
IC50 [7]: > 100 µM (not active)

CCOc1ccc(NC2=NC(=O)S/C2=C\c2ccc(OC)cc2)cc1
IC50 [19]: 18.8 µM (active)
IC50 [17]: > 50 µM (not active)
IC50 [18]: 99.9 µM (not active)

Nc1ccc(C(=O)OCc2nc3cc4ccccc4cc3[nH]2)cc1
CC50 [9]: 36.6 µM (active)
IC50 [20]: 23.6 µM (active)
IC50 [21]: 3.67 µM (active)

Cc1ccc2c(c1)CCCN2C(=O)c1cc(C)c(C)s1
CC50 [22]: > 40 µM (active)

CCN(CC)c1ccc(C2=NNC(=O)CC2C)cc1[N+](=O)[O-] (centres undefined)
EC50 [2]: < 0.1 µM (active)
EC50 [23]: 0.504 µM (active)
EC50 [24]: < 0.1 µM (active)
EC50 [25]: 0.123 µM (active)
EC50 [26]: 0.05 µM (active)
EC50 [27]: 0.194 µM (active)
EC50 [28]: > 112 µM (not active)

COc1ccc(OC)c(C2CC(c3c(O)nc4ccc(Cl)cc4c3-c3ccccc3)=NN2S(C)(=O)=O)c1 (centres undefined)
EC50 [29]: 9.08 µM (active)
CC50 [30]: > 40 µM (active)
EC50 [31]: 11.3 µM (active)

CN(CC1COc2ccccc2O1)c1nc(-c2cccnc2)nc2ccccc12 (centres undefined)
EC50 [8]: 2.65 µM (active)
IC50 [32]: 24.4 µM (active)

O=C(Cn1ncc(Cl)c(Cl)c1=O)c1ccc2c(c1)OCCO2
AC50 [33]: 28.4 µM (active)
CC50 [22]: 9.67 µM (active)
AC50 [34]: 17 µM (active)
AC50 [14]: > 120 µM (inactive)
EC50 [35]: > 59.5 µM (inactive)
EC50 [36]: > 59.5 µM (inactive)
AC50 [37]: 21.3 µM (active)
AC50 [38]: 36.5 µM (active)
AC50 [39]: 15.4 µM (active)
CC50 [40]: 13.8 µM (active)

Nc1c(-c2ccccc2)cnn1-c1ccc(C(=O)O)cc1
IC50 [41]: 5.93 µM (active)

Cc1cc(C)c2nc(N3CCC(C(=O)NCCCN4CC(C)CC(C)C4)CC3)sc2c1 (centres undefined)
EC50 [42]: 1.22 µM (active)
EC50 [43]: > 60 µM (not active)
IC50 [41]: 8.62 µM (active)
AC50 [44]: 21.5 µM (active)

Cc1cnc(NC(=O)C2COc3ccccc3O2)s1 (centres undefined)
EC50 [1]: 1.95 µM (active)
EC50 [4]: > 50 µM (not active)

CC(=O)NNC(=S)NC(=O)c1cccc([N+](=O)[O-])c1
IC50 [45]: 45.8 µM (active)
IC50 [5]: > 50 µM (not active)

Cc1ccc(/C=N\NC(=O)C2CN(S(=O)(=O)c3ccccc3)CCN2S(=O)(=O)c2ccccc2)cc1 (centres undefined)
IC50 [20]: 13.6 µM (active)
